Results as given in US20210386754A1, “COMPOSITIONS AND METHODS FOR TREATING ATHEROSCLEROTIC VASCULAR DISEASE” (AUGUSTA UNIVERSITY RESEARCH INSTITUTE, INC., priority 2020, published 2021).
Entries after “also recorded” stand apart in the source; their conditions may differ.

Tests used:
[1] = test system: macrophages (SR-mediated ox-LDL uptake); experiment: SR-mediated ox-LDL uptake; type: cell-based; settings: EIPA 25 μM, 1 hr; ox-LDL 50 μg/ml
Experimental: Foam cell formation: THP-1 macrophages or bone marrow-derived macrophages were treated with vehicle, known macropinocytosis stimulators (PMA 1 μM, M-CSF 100 ng/mL or PDGF 200 ng/mL)+/− macropinocytosis inhibitors (imipramine 10 μM or EIPA 25 μM; 1 hour pre-incubation) in the presence of nLDL, ox-LDL, or ac-LDL ([…]) for 24 hours. Cells were fixed in 2% PFA and stained with Nile Red (50 ng/mL) for 7 min. Fluorescence intensity was measured using the FL3 channel for Nile Red (Ex: 488 nm, Em: 670 nm).

[2] = test system: RAW 264.7 macrophages; experiment: Clathrin-mediated endocytosis of FITC-transferrin; type: cell-based; settings: EIPA 25 μM, 1 hr; FITC-transferrin 1 μg/ml
Experimental: Clathrin- and caveolin-mediated endocytosis: Receptor-mediated uptake of FITC-transferrin (1 μg/mL; clathrin-mediated endocytosis) and Alexa Fluor 488-albumin ([…]; caveolin-mediated endocytosis) was investigated in RAW 264.7 macrophages following their incubation with ±EIPA (25 μM; 1 hour pre-incubation). Fluorescence intensity was measured using the FL1 channel for FITC and Alexa Fluor 488 (Ex: 488 nm, Em: 530 nm).

[3] = test system: hypercholesterolemic mice (PCSK9-AAV-mediated LDLR knockdown); experiment: Atherosclerosis model: PCSK9-AAV, partial LCA ligation, Western diet; type: in vivo, mouse; settings: for inhibition of atherosclerotic lesion area (ORO positive area, LCA): continuous infusion via subcutaneous osmotic pump
From the text: Mice were given a single injection of AAV-PCSK9 (1×1011 VG) and fed a Western diet (Envigo, TD.88137, Indianapolis, Ind.). One week after AAV-PCSK9 injection, mice underwent partial carotid ligation surgery as previously described (67) and Western diet was continued for another 3 weeks. In separate experiments, mice were given a single injection of AAV-PCSK9 (1×1011 VG) and fed a Western diet for 16 weeks. Mice were anesthetized (isoflurane inhalation, 3%) and exsanguinated. Blood was collected from left ventricle using a heparinized syringe fitted with a 21 G needle. Aortic arch and carotid arteries were collected, and gross macroscopic images were acquired. For molecular histology studies, carotids and aortic arch were fixed in 4% paraformaldehyde (PFA), embedded in OCT compound and stored at −80° C. until use.
ORO staining: Atherosclerosis development in carotid arteries and whole aorta were studied initially by gross imaging followed by Oil Red O (ORO) staining and plaque quantification. Briefly, the entire aorta was isolated, cleaned of peri-adventitial fat, fixed and imaged on the surface of black silicone-coated dissection dishes. Left carotid arteries were embedded in OCT and 10 μm thick cross-sections were prepared. The arteries were divided into 3 regions based on their distance from the aortic arch: proximal (0-400 μm), middle (2,000-2,400 μm) and distal (4,000-4,400 μm). Frozen sections and whole aortas were then stained with ORO solution (2%) and images were taken using light microscope equipped with a camera under 20× and 1.6× objective lens. The total area, lumen area and ORO positive area were measured for six sections/anatomical position per mouse using Image J software. The ratio of ORO positive area to arterial area is represented as plaque area. Plasma total cholesterol concentrations were determined by the Amplex™ Red Cholesterol Assay Kit (ThermoFisher, Rockford, Ill.). Plasma lipid profiles were obtained by column fractionation and measurements of fraction cholesterol content.
Hematoxylin and Eosin (H&E) or Masson's trichrome staining: Frozen sections were also used for Hematoxylin and Eosin (H&E) or Masson's trichrome staining following standard procedures to evaluate the lesion size and collagen content, respectively.
Orcein and Martius Scarlet Blue (OMSB) staining: OMSB was used for qualitative and quantitative analysis of atherosclerotic plaques as previously described. Briefly, left carotid arteries were dissected out, fixed in 4% buffered paraformaldehyde (pH=7.4) for at least 48 hr, and then routinely processed and embedded in paraffin (tissue processor TP1020; Leica, Wetzlar, Germany). Cross sections were cut every 5 m along the artery (starting from the proximal end) and mounted serially on silanized slides. Sections were stained and mounted automatically using Leica ST5010 Autostainer XL combined with Leica CV5030 Glass Coverslip. Deparaffinized sections through xylene and ethanol, and rehydrate to water. Postfix sections in Bouin's fixative at 56° C. for 1 hour, then rinse for 10 min in tap water to remove traces of picric acid. Stain with orcein for 20 min at 56° C. Differentiate in acidic alcohol for 2 min and then transfer to 96% ethanol for 30 s. Stain with martius yellow for 3 min and rinse in distilled water (2×2 min). Stain with crystal scarlet for 10 min. Differentiate with phosphotungstic acid 2 min and transfer to distilled water (for about 10 s). Stain with methyl blue 5 min. Rinse in acetic acid water 3 min, dehydrate through ethanol and carbol-xylene, clear in xylene, and mount in DPX or other resin. Staining of collagen with picrosirius red. The sections were examined and digital images of stained arteries were recorded using Olympus dotSlide system (Olympus, Tokyo, Japan). Segmentation algorithm allowed to distinguish vessel wall area, lumen area, plaque area, and area of the plaque occupied by collagen. The results were presented as areas of identified components in μm2. […]

[4] = test system: Wild type BMDM; experiment: Cytokine secretion, LEGENDplex bead-based immunoassay; type: cell-based, mouse
Experimental: Wild type BMDM were incubated with vehicle or treated with EIPA (25 μM, 24 hours). Cytokine secretion into the media was quantified using the LEGENDplex™ (mouse inflammation panel) bead-based immunoassay according to the manufacturer's instructions (BioLegend, San Diego, Calif., USA). Data were acquired using four-color BD FACSCalibur (BD Biosciences, San Jose, Calif., USA) and analyzed using the LEGENDplex Data Analysis software (BioLegend).

[5] = test system: THP-1 monocytes on human aortic endothelial cells; experiment: Monocyte adhesion assay; type: cell-based; settings: EIPA 25 μM; HAEC TNFα 10 ng/ml, 4 hr
Experimental: Adhesion studies were performed using the human monocyte cell line THP-1. Vehicle- or EIPA (25 μM, 24 hours)-treated THP-1 monocytes were labeled using Vybrant™ CFDA SE Cell Tracer Kit (ThermoFisher). Human aortic endothelial cell monolayers grown on coverslips in a 24-well plate were treated with vehicle (PBS) or TNFα (10 ng/ml) for 4 hours. Endothelial cells were labeled with Cell Tracker™ Deep Red Dye (ThermoFisher). Fifty microliter of THP-1 monocyte suspension containing 1×10^6 cells was added to each well of endothelial cells, and the plates were gently agitated and placed in a cell culture incubator for 1 hour. At the end of the incubation period, the monolayer was gently washed three times with cold PBS. After the final wash, coverslips were stained with Hoechst 33342 (ThermoFisher) and mounted onto slides using mounting medium. Fluorescent signals were detected using a Zeiss 780 upright confocal microscopy. Quantification was completed with Image-Pro Plus software (Media Cybemetics, Bethesda, Md., USA).

[6] = EIPA vs vehicle, WT and CD36-/-/SR-A-/- mice
[7] = EIPA vs vehicle, WT and CD36-/-/SR-A-/- mice, LCA

## CCN(c1nc(N)c(C(=O)N=C(N)N)nc1Cl)C(C)C [EIPA, 5-(N-ethyl-N-isopropyl)amiloride]
[1]
  SR-mediated ox-LDL uptake: without inhibiting; also recorded: does not inhibit
[2]
  clathrin-mediated transferrin endocytosis: without inhibiting; also recorded: does not inhibit
[3]; [6]
  blood pressure (systolic): not different
  body weight: not different
[3]; [7]
  CD68+ macrophage staining: significantly decreased
  Collagen content (Masson's trichrome): significantly decreased
  atherosclerotic lesion area (H&E): significantly decreased
[3]; female WT mice, PCSK9-AAV (LDLR-deficient), Western diet 4 weeks, EIPA via subcutaneously implanted minipump
  atherosclerosis (plaque area, OMSB, LCA): inhibited atherosclerosis; also recorded: attenuates
[3]; male CD36-/-/SR-A-/- mice, Western diet 4 weeks
  inhibition of atherosclerotic lesion area (ORO positive area, LCA): ~80%
[3]; male WT mice, Western diet 4 weeks
  inhibition of atherosclerotic lesion area (ORO positive area, LCA): ~80%
[3]; wild-type and SR knockout mice
  atherosclerosis development: reduces
[4]; EIPA 25 μM, 24 hours, n = 3, vehicle 2.40 ± 0.58
  IL-6 secretion: 1.82 ± 0.40 pg/mL
[4]; EIPA 25 μM, 24 hours, n = 3, vehicle 7.83 ± 1.89
  TNFα secretion: 4.76 ± 0.77 pg/mL
[4]; EIPA 25 μM, 24 hours, n = 3, vehicle 38.04 ± 6.03
  MCP-1 secretion: 22.19 ± 2.30 pg/mL
[4]; in the absence of exogenous lipids
  macrophage secretion of TNF-α, MCP-1, and IL-6: does not inhibit
[5]
  monocyte adhesion to TNFα-treated endothelial cells: does not inhibit
